The record followed here is PubChem BioAssay (NCI).

Molecules are shown by their SMILES. Where “and” joins values, the source holds several entries; their conditions need not be identical. Equal entries are not always repeated.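 Tested at 5 concentrations; 48 h exposure; 96-well plates; endpoints linearly interpolated, else capped at highest concentration. TGI marks complete inhibition of growth.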

Among the test systems are MCF7 breast; UACC-62 melanoma; HS 578T breast; COLO 205 colon; HOP-62 NSCLC; PC-3 prostate; MOLT-4 leukemia; SF-268 CNS; MDA-MB-435; SK-MEL-5 melanoma; NCI-H226 lung; OVCAR-8 ovarian; A498 renal; K-562 leukemia; SR leukemia; SK-OV-3 ovarian; SNB-75 CNS.
Experiment in all cases: NCI-60 cell line screen, 48 h

Turning to `O=C1CCC(=O)N1CNc1ccc2c(c1)Sc1ccccc1O2`, the TGI in the test with MCF7 breast was > 100 µM; with UACC-62 melanoma, > 100 µM; in the test on HS 578T breast it was > 100 µM; with COLO 205 colon, 35.3 µM; with HOP-62 NSCLC, > 100 µM; in the test on PC-3 prostate it was > 100 µM. The TGI was > 100 µM in the test with MOLT-4 leukemia; > 100 µM in the test on SF-268 CNS; > 100 µM with MDA-MB-435; 70.1 µM with SK-MEL-5 melanoma; 63.1 µM with NCI-H226 lung; 68.5 µM in the test on OVCAR-8 ovarian. In addition, the TGI in the test with A498 renal and in the test on K-562 leukemia was > 100 µM each time.
For the compound `Cc1cc(Cl)nc(NC(=O)CSc2ccc(Cl)cc2)n1`, the TGI in the test with UACC-62 melanoma, in the test on HS 578T breast, with HOP-62 NSCLC, in the test with PC-3 prostate, in the test with MOLT-4 leukemia and in the test with SF-268 CNS was > 100 µM throughout. Besides, the TGI in the test on MDA-MB-435, with SK-MEL-5 melanoma, in the test with NCI-H226 lung, with OVCAR-8 ovarian, in the test with SR leukemia and in the test on A498 renal was > 100 µM each time. Also, the TGI in the test with K-562 leukemia is > 100 µM.
`CN(C)c1ccc(N=Nc2cccc3ccoc23)cc1`: the TGI with UACC-62 melanoma, with SK-OV-3 ovarian, in the test with SNB-75 CNS, in the test with HS 578T breast, in the test with COLO 205 colon and in the test on HOP-62 NSCLC was > 100 µM each time. Moreover, the TGI in the test on PC-3 prostate, in the test with MOLT-4 leukemia, in the test with SF-268 CNS, in the test with MDA-MB-435, with SK-MEL-5 melanoma and in the test with NCI-H226 lung was > 100 µM each time. The TGI with OVCAR-8 ovarian is > 100 µM; in the test on SR leukemia, > 76.1 µM; in the test on A498 renal it was > 100 µM; with K-562 leukemia, > 100 µM.
Take `CCC1(O)CC(OC2CC(N(C)C)C(OC3CC(O)C(OC4OC(C)C(=O)C=C4N)C(C)O3)C(C)O2)c2c(O)c3c(c(O)c2C1C(=O)OC)C(=O)c1cccc(O)c1C3=O` (stereo not drawn): the TGI in the test on MCF7 breast was 1.4 µM; with UACC-62 melanoma, 0.0375 µM; in the test on SNB-75 CNS, 0.223 µM; with HS 578T breast, 0.366 µM and 1.47 µM; in the test with COLO 205 colon it was 0.116 µM; in the test on HOP-62 NSCLC it was 0.855 µM. Moreover, the TGI was 0.294 µM and 0.0742 µM in the test with PC-3 prostate; 0.299 µM in the test with SF-268 CNS; 0.107 µM with MDA-MB-435; 0.0659 µM in the test on SK-MEL-5 melanoma; 0.0806 µM in the test with NCI-H226 lung; 0.261 µM with OVCAR-8 ovarian. Also, the TGI is 0.0129 µM in the test with A498 renal; 0.125 µM and 0.0234 µM in the test with K-562 leukemia.
Take `CCCCCCNC(=O)c1cc(NCc2cc(OC)ccc2OC)ccc1O`: the TGI was 53.5 µM with MCF7 breast; 33 µM in the test with UACC-62 melanoma; 36.9 µM in the test on SK-OV-3 ovarian; 76.3 µM with SNB-75 CNS; 97.9 µM with HS 578T breast; 33.9 µM in the test on COLO 205 colon. In addition, the TGI worked out at 45.7 µM in the test with PC-3 prostate; 66.5 µM in the test on MOLT-4 leukemia; 32.3 µM in the test with SF-268 CNS; 44.8 µM with MDA-MB-435; 28.4 µM in the test on SK-MEL-5 melanoma; 64.9 µM in the test on NCI-H226 lung. Also, the TGI in the test on OVCAR-8 ovarian came out at 86.7 µM; with K-562 leukemia, 47.3 µM.
Regarding `CC(=O)c1ccc(-c2oc(-c3ccccc3)cc2-c2ccc3c(c2)OCO3)s1`, the TGI in the test with MCF7 breast, in the test on UACC-62 melanoma, with SK-OV-3 ovarian, in the test on SNB-75 CNS, in the test on HS 578T breast and with COLO 205 colon was > 100 µM each time. The TGI in the test on HOP-62 NSCLC was > 100 µM; with MOLT-4 leukemia, > 100 µM; in the test with SF-268 CNS it was > 100 µM; with MDA-MB-435 it was 6.08 µM; with SK-MEL-5 melanoma, > 100 µM; in the test with NCI-H226 lung, > 100 µM. In addition, the TGI with OVCAR-8 ovarian, with SR leukemia, with A498 renal and with K-562 leukemia was > 100 µM throughout.
`CC1CC(N)=Nc2ccccc2N1Cc1ccccc1` (stereo not drawn): the TGI with UACC-62 melanoma came out at 27.2 µM; in the test with SK-OV-3 ovarian it was 25.9 µM; with SNB-75 CNS, 20.8 µM; in the test with HS 578T breast it was 23.8 µM; in the test on COLO 205 colon it was 28.1 µM; in the test on HOP-62 NSCLC, 27.2 µM. The TGI in the test on PC-3 prostate came to 28.2 µM; in the test with MOLT-4 leukemia it was 18.4 µM; in the test with SF-268 CNS, 26.4 µM; in the test on MDA-MB-435, 26.8 µM; with SK-MEL-5 melanoma, 27.8 µM; in the test on NCI-H226 lung, 30.9 µM. The TGI was found to be 27.8 µM in the test on OVCAR-8 ovarian, 23.3 µM with A498 renal and 15.7 µM in the test on K-562 leukemia.
For `Cc1ccc2c(c1)C(=O)/C(=C1/CCc3ccc(C)cc31)C2`, the TGI in the test with MCF7 breast was > 100 µM; with UACC-62 melanoma, > 100 µM; with SK-OV-3 ovarian, > 100 µM; in the test on SNB-75 CNS it was 71.1 µM; with HS 578T breast, > 100 µM; in the test with COLO 205 colon, > 100 µM. The TGI in the test on HOP-62 NSCLC, in the test with MOLT-4 leukemia, in the test with SF-268 CNS, in the test on MDA-MB-435, in the test on SK-MEL-5 melanoma and in the test with NCI-H226 lung was > 100 µM in each case. Also, the TGI in the test on OVCAR-8 ovarian, in the test on SR leukemia, in the test on A498 renal and with K-562 leukemia was > 100 µM throughout.
